Test results: patent US20230263812A1, “Compositions and Methods for Treating COVID-19 and/or Acute Respiratory Failure and/or Acute Respiratory Distress Syndrome Using Tetrahydrocannabinol and Compositions Including Same” (priority 2020, published 2023)
Counter-ions that a name gives are not always drawn. Like-named read-outs stand apart in the source and are kept apart here.

Assays:
[1] = system: COVID-19; assay: Clinical study of oral dronabinol plus standard of care in COVID-19 patients hospitalized for hypoxia; format: in vivo, human; settings: for LOS: LOS = length of stay (days)
[2] = cited from earlier work
[3] = cited from earlier work; for share of the urinary excretion products of fluvoxamine: 5 mg radiolabelled dose of fluvoxamine maleate, fluvoxamine acid value is together with its N-acetylated analog; for bound to plasma protein: mostly albumin, concentration range 20 to 2000 ng/mL
[4] = system: serotonin uptake; settings: in vitro, rats; cited from earlier work
[5] = system: norepinephrine reuptake; settings: in vitro, rats; cited from earlier work
[6] = target: σ-1 non-opioid receptor (Homo sapiens, UniProt Q99720); settings: cited from earlier work
[7] = system: serotonin reuptake; settings: in vitro as well as in vivo; cited from earlier work
[8] = cited from earlier work; remark: listed apart in the source

Chain of σ-1 non-opioid receptor (Q99720 whole entry): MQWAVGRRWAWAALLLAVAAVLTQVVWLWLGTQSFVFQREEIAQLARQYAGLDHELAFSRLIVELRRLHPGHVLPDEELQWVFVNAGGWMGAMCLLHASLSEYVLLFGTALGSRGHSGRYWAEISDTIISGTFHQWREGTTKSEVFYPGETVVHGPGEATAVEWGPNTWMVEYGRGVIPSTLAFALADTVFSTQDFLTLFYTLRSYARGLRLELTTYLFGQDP

CCCCCc1cc(O)c2c(c1)OC(C)(C)[C@@H]1CCC(C)=C[C@@H]21 [dronabinol, (−)-(6aR,10aR)-6,6,9-trimethyl-3-pentyl-6a,7,8,10a-tetrahydro-6H-benzo[c]-chromen-1-ol]
survival rate ([1]; 2.5 mg dronabinol regimen): 88.9%
LOS ([1]; 2.5 mg dronabinol regimen): 17.4
# Survived ([1]; 2.5 mg dronabinol regimen, total 9 in group): 8
survival rate ([1]; 2.5 mg group (2.5 mg twice orally daily)): 89%
survival rate ([1]; 5 mg dronabinol regimen): 94.1%
LOS ([1]; 5 mg dronabinol regimen): 8.8
# Survived ([1]; 5 mg dronabinol regimen, total 68 in group): 64
survival rate ([1]; 5 mg treated group (5 mg orally twice daily)): 93.5%
survival rate ([1]; all dronabinol-treated patients (77), standard of care alone 80%): 93.5%
Mortality rate ([1]; hospitalized COVID-19 patients requiring oxygen supplementation, 2.5 mg or 5 mg dronabinol orally BID plus standard of care, 77 patients, untreated group 20.5%): 6.5%
average first peak C-reactive protein (CRP) levels, difference ([1]; lower in the treatment group than untreated, p-value 0.07, not statistically significant): 14%
reduction in mortality ([1]; treated group (77) versus untreated/control group (44), p-value 0.02): 68%
Length of stay in the hospital ([1]; treated group, untreated group 15.6 days): 9.9 days
reduction in length of stay ([1]; treated versus untreated group, p-value 0.01): 37%
time for which low levels of metabolites are detected in the urine and feces ([2]; following single dose administration): more than 5 weeks
radio-labeled oral dose recovered from the feces within 72 hours ([2]; in vivo, po): about half
radio-labeled oral dose recovered from urine ([2]; in vivo, po): 10-15%
absorbed after single oral doses ([2]; oral): 90-95%
plasma protein binding ([2]; Δ9-THC and its metabolites): approximately 97%

NCCO/N=C(\CCCC(=O)O)c1ccc(C(F)(F)F)cc1 [fluvoxamine acid]
share of the urinary excretion products of fluvoxamine [3]: about 60%
potency on serotonin uptake relative to the parent compound [4]: 1-2 orders of magnitude less potent

COCCCC/C(=N\OCCO)c1ccc(C(F)(F)F)cc1 [fluvoxamine ethanol]
norepinephrine reuptake inhibition [5]: inactive
share of the urinary excretion products of fluvoxamine [3]: about 10%
inhibition of serotonin uptake [4]: inactive

COCCCC/C(=N\OCCN)c1ccc(C(F)(F)F)cc1 [fluvoxamine maleate]
effect of food on oral bioavailability ([3]; human, in vivo, po): not significantly affected by food

COCCCC/C(=N\OCCN)c1ccc(C(F)(F)F)cc1 [fluvoxamine, 2-[(E)-[5-methoxy-1-[4-(trifluoromethyl)phenyl]pentylidene]amino]oxyethanamine]
agonistic sigma1 binding affinity, rank among agents tested [6]: strongest
serotonin reuptake inhibition [7]: potent
mean apparent volume of distribution ([3]; human, in vivo): approximately 25 L/kg
mean apparent volume of distribution ([3]; human, in vivo, listed as Fluvoxamine): 25 L/kg
bound to plasma protein [3]: Approximately 80%
bound to plasma protein ([3]; listed as Fluvoxamine): 80%
decrease in clearance in association with hepatic dysfunction ([8]; cross study comparison, healthy subjects versus patients with hepatic dysfunction): 30%
clearance reduced in elderly patients ([8]; human, in vivo): about 50%
